Structures can show the parent of a compound that is named as a salt. Where two headings read alike, the source gives them in different places.
Key:
[1] = tested on: unilateral ureteral obstruction (UUO) kidneys; experiment: IP cysteamine HCL dose trial in UUO mice; format: in vivo
Experimental: Unilateral ureteral obstruction (UUO) was performed on ten mice.

[2] = Plasma cysteamine levels by mass spectrometry; format: in vivo, mice; details: for plasma levels of cysteamine at the time of sacrifice: day 14 after UUO
Experimental: Plasma cysteamine levels were measured by mass spectrometry by the reference laboratory at UC San Diego that also runs most of the human samples for the North American patients with cystinosis.
Plasma levels were taken every hour during the evening (for 12 hours) and every four hours during the day (n=4/group).

[3] = tested on: UUO kidneys; experiment: Total kidney collagen (hydroxyproline) in UUO kidneys; format: in vivo, mice; details: for reduction of total kidney collagen content: day 14 after UUO
Experimental: (§1) Cysteamine bitartrate, the bitartrate salt of cysteamine is known commercially as Cystagon®. […] Both doses were well-tolerated and measured serum levels of cysteamine were appropriate.
Unilateral ureteral obstruction (UUO) was performed on 8 week-old wild-type male mice on a C57BL6 background. […] Groups of mice (n=8-10 mice per group at each time-point) were studied 3, 7, 14, and 21 days after the onset of chronic injury induced by UUO.
Total collagen was measured as hydroxyproline concentration in hydrolysates extracted from frozen normal (unobstructed) and UUO kidney samples. […] Collagen reduction was confirmed by sirius red staining

[4] = tested on: TGF-β receptor 1; experiment: Real-time PCR of profibrotic cytokines in UUO kidneys: TGF-β receptor; format: in vivo; details: vs control mice; for down-regulation of TGF-β receptor mRNA levels: day 14 after UUO
Experimental: (§2) The expression patterns of pro-inflammatory and pro-fibrotic cytokines were investigated at day 7 and day 14 in total kidney homogenate by semi-quantitative real time qPCR.
(§3) UUO was performed on 8 week-old wild-type male mice on a C57BL6 background. […] The kidneys (obstructed and contralateral) were harvested at day land day 14 after UUO.
(§4) Semi-quantitative real-time PCR was performed with specific primers to TGF-β and TGF-β receptor 1 genes using iCycler (Bio-Rad) with standard protocol. […] Semi-quantitative real-time PCR data was analyzed with REST software using both GAPDH and 18S as reference genes. Each sample was performed in triplicate. (‡P<0.05, †P<0.01).

[5] = tested on: F4/80-positive interstitial macrophages; experiment: F4/80 confocal staining of UUO kidneys; format: in vivo, mice
Experimental: as §3, with “UUO. Macrophage accumulation was analyzed by confocal staining using F4/80 rat anti-mouse macrophage monoclonal antibody (Serotec Ltd., Oxford, UK).” for “UUO.”

[6] = tested on: TGF-β; experiment: Real-time PCR of profibrotic cytokines in UUO kidneys: TGF-β; format: in vivo; details: vs control mice; for down-regulation of TGF-β mRNA levels: day 14 after UUO
Experimental: as §2, §3, §4

[7] = tested on: fibronectin; experiment: ECM gene mRNA by real-time qPCR in UUO kidneys: fibronectin; format: in vivo, mice; details: day 7 after UUO
Experimental: (§5) Unilateral ureteral obstruction (UUO) was performed on 8 week-old wild-type male mice on a C57BL6 background. […] The kidneys were harvested at 3, 7, and 14 days after UUO.
(§6) Extracellular matrix (ECM) gene mRNA levels were measured by semiquantitative real-time PCR (qPCR) in both doses at 3, 7 and 14 days after UUO. Real-time qPCR) was performed with specific primers for collagen 1A1, collagen 3A1, fibronectin, and other profibrotic and proinflammatory genes using standard protocols. Semi-quantitative real-time qPCR data was analyzed with REST software using both GAPDH and 18S as reference genes. Reactions were run in triplicate, and mean threshold crossing cycle (Ct) values were compared. ‡P<0.05; †P<0.01.

[8] = tested on: procollagen III; experiment: ECM gene mRNA by real-time qPCR in UUO kidneys: procollagen III; format: in vivo, mice; details: day 7 after UUO
Experimental: as §5, §6

[9] = tested on: unilateral ureteral obstruction (UUO) kidneys; details: for severity of fibrosis as measured by total collagen content: day 14 after UUO
Experimental: Mice were sacrificed at day 14 after UUO and total renal collagen levels (μg hydroxyproline/mg) were measured. Total collagen in the tissue was calculated on the assumption that collagen contains 12.7% hydroxyproline by weight.

[10] = tested on: α-SMA-positive myofibroblasts; experiment: α-SMA immunoperoxidase staining of UUO kidneys; format: in vivo, mice
Experimental: Myofibroblast activation and accumulation was examined after UUO by measuring the expression of α-smooth muscle actin (α-SMA), a marker of myofibroblast activation. Interstitial myofibroblasts are the primary matrix-producing cell in response to kidney injury. […] Cell proliferation was measured by counting BrdU positive cells using a monoclonal anti-BrdU antibody. Myofibroblast recruitment was quantified after immunoperoxidase staining using peroxidase-conjugated murine anti-human α-smooth muscle actin (α-SMA) 1A4 monoclonal antibody (Sigma).

[11] = tested on: E-cadherin; experiment: E-cadherin immunoblotting in UUO mice; format: in vivo; details: treated UUO mice
Excerpt: as §1

[12] = tested on: procollagen I; experiment: ECM gene mRNA by real-time qPCR in UUO kidneys: procollagen I; format: in vivo, mice; details: 600 mg/kg
Experimental: as §5, §6

[13] = tested on: IL-1β, TNF-α, IL-6, Gal-3, and Endo180; experiment: Real-time qPCR of pro-inflammatory and pro-fibrotic cytokines in UUO kidneys; format: in vivo; details: day 14 after UUO, vs control mice
Experimental: as §2, §3

[14] = tested on: total kidney thiol content; experiment: Total kidney thiol content in UUO mice; format: in vivo
Experimental: In order to investigate the importance of total redox status during fibrotic injury, total kidney thiol content was measured as an indicator of antioxidant status.
UUO was performed on 8 week-old wild-type male mice on a C57BL6 background (n=5/group). […] The kidneys (obstructed and contralateral) were harvested at days 7, 14 and 21 after UUO. Tissue from contralateral and UUO kidneys was processed in antioxidant buffer and analyzed for total thiol content fluorometrically and normalized to protein content using a Measure-iT™ Thiol Assay Kit (Invitrogen).

[15] = target: T1, TGase (Homo sapiens, UniProt P21980); details: in vitro, Jeon et al. 2004; cited from earlier work
T1 sequence (P21980 1-687): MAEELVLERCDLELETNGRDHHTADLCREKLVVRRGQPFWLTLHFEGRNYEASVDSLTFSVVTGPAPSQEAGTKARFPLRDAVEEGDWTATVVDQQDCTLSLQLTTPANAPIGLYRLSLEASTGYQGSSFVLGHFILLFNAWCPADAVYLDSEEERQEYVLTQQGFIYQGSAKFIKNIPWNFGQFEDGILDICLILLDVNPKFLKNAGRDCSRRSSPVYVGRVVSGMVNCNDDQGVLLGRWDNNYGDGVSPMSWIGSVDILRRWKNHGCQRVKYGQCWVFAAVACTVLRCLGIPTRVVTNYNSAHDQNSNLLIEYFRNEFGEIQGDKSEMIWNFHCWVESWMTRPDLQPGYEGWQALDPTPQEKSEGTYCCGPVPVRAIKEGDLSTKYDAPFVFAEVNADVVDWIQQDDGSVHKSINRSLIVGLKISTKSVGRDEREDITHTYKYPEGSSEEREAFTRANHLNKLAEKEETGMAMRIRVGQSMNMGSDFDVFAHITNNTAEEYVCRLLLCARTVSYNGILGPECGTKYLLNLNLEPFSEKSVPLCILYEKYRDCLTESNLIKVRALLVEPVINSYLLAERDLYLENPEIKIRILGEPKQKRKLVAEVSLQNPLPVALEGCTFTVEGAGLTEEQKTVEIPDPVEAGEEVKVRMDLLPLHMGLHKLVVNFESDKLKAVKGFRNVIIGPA

[16] = tested on: Nox2, Nox4, and SOD1; experiment: Real-time qPCR of oxidant and anti-oxidant genes in UUO mice; format: in vivo; details: day 7 and day 14, qPCR (data not shown)
Excerpt: In addition, there was no difference between cysteamine-treated and control mice in the modulation of the expression of the oxidant and anti-oxidant genes Nox2, Nox4, and SOD1 as determined by semi-quantitative real time qPCR at day 7 and day 14 (data not shown).

[17] = delivery to the small intestine; cited from earlier work
[18] = tested on: Transglutaminase 2 (TGase2); experiment: TGase2 protein expression in UUO kidneys; format: in vivo, mice; details: 400 mg/kg or 600 mg/kg
Excerpt: Transglutaminases (TGases) are a family of enzymes that catalyze the transamidation reaction between the γ-carboxyamide of a peptide-bound glutamine residue and the ϵ-amino group of a peptide-bound lysine residue or the primary amine group of a polyamine via forming a thioester acylenzyme intermediate at the active site cysteine. Thus, TGase activity produces cross-linked proteins or amine conjugates. One type of TGase, TGase2, acts to cross link ECM proteins, particularly Collagen III. Cross linking renders proteins resistant to degradation, which is thought to result in accelerated matrix deposition.

[19] = tested on: intracellular cystine (circulating white blood cells); details: cited from earlier work
[20] = high doses (600 mg/kg), day 7 after UUO

NCCS [cysteamine HCL]
total renal collagen levels (hydroxyproline) ([1]; 400 mg/kg dose group, daily IP, day 14 after UUO, compared to placebo (PBS)): decreased total collagen levels
deaths ([1]; IP, high dose levels): several mice died
adverse signs observed ([1]; mouse, in vivo, ip): Possible seizures and somnolence

NCCS [cysteamine bitartrate]
Cmax ([2]; read-out: Cmax levels of cysteamine, C57BL/6 mice, 600 mg/kg in drinking water for 3 days): 15 to 20 µM

NCCS.O=C(O)C(O)C(O)C(=O)O (centres unmarked) [cysteamine bitartrate]
tolerability ([3]; 400 mg/kg/day and 600 mg/kg/day, UUO mice): well-tolerated
reduction of total kidney collagen content ([3]; 400 mg/kg/day in drinking water, vs untreated): 21%
reduction of total kidney collagen content ([3]; 600 mg/kg/day in drinking water, vs untreated): 21%
decrease in collagen levels ([3]; 600 mg/kg/day in drinking water, day 21 after UUO, vs untreated): 25%
collagen reduction by sirius red staining ([3]; UUO kidneys): confirmed
kidney collagen levels ([3]; both doses, 400 and 600 mg/kg/day, by day 14, P<0.01): statistically significant reductions
total collagen, treated vs control ([3]; day 7 after UUO): no difference
down-regulation of TGF-β receptor mRNA levels ([4]; 400 mg/kg): 47%
down-regulation of TGF-β receptor mRNA levels ([4]; 600 mg/kg): 64%
up-regulation of TGF-β receptor expression [4, 20]: approximately 60%
reduction in interstitial macrophage infiltration ([5]; 600 mg/kg/day, day 14 after UUO): 34%
interstitial macrophage infiltration, treated vs control ([5]; day 7 after UUO): No difference
down-regulation of TGF-β mRNA levels ([6]; 400 mg/kg): 47%
down-regulation of TGF-β mRNA levels ([6]; 600 mg/kg): 64%
up-regulation of TGF-β expression [6, 20]: approximately 60%
reduction in kidney fibronectin mRNA levels ([7]; 400 mg/kg): ~40%
reduction in fibronectin mRNA levels ([7]; 600 mg/kg): ~60%
reduction in procollagen III mRNA levels ([8]; 400 mg/kg): ~40%
reduction in procollagen III mRNA levels ([8]; 600 mg/kg): ~60%
severity of fibrosis as measured by total collagen content ([9]; 400 mg/kg in drinking water): attenuated
severity of fibrosis as measured by total collagen content ([9]; 600 mg/kg in drinking water): attenuated
deaths or abnormal behavior ([9]; 200, 400, 600 mg/kg in drinking water, 14 days, even at high doses): No deaths or abnormal behavior was observed
reduction in α-SMA-positive myofibroblasts ([10]; 400 mg/kg, day 14 after UUO): ~30%
reduction in α-SMA-positive myofibroblasts ([10]; 600 mg/kg, day 14 after UUO): ~30%
increase of E-cadherin levels (marker of tubular damage) [11]: 1.3 fold
reduction in procollagen I mRNA levels ([12]; day 7 after UUO): ~60%
procollagen I mRNA levels lower ([12]; day 14 after UUO): 56%
plasma levels of cysteamine at the time of sacrifice ([2]; 400 mg/kg in drinking water): 0.81±0.091 Ilmole/L
plasma levels of cysteamine at the time of sacrifice ([2]; 600 mg/kg in drinking water): 1.04±0.151 Ilmole/L
serum levels of cysteamine, night vs day ([2]; C57BL/6 mice, 600 mg/kg in drinking water for 3 days): higher serum levels of cysteamine are achieved at night and lower levels during the day
expression levels of IL-1β, TNF-α, IL-6, Gal-3, and Endo180 [13]: No difference

NCCS [cysteamine, β-mercaptoethylamine]
total kidney thiol content in UUO kidney ([14]; 400 mg/kg or 600 mg/kg, day 7 after UUO): remained at levels close to that of the contralateral kidney
increase of total kidney thiol content ([14]; high dose (600 mg/kg), compared to controls): 36%
TGase inhibition [15]: less potent inhibitor of TGase than both cystamine and primary amines
expression of oxidant and anti-oxidant genes Nox2, Nox4, and SOD1, treated vs control [16]: no difference
reduction in α-SMA-positive myofibroblasts ([10]; 400 mg/kg, day 7 after UUO): 38%
reduction in α-SMA-positive myofibroblasts ([10]; 400 mg/kg, day 14 after UUO): 24%
reduction in α-SMA-positive myofibroblasts ([10]; 600 mg/kg, day 7 after UUO): 47%
reduction in α-SMA-positive myofibroblasts ([10]; 600 mg/kg, day 14 after UUO): 33%
Cmax [17]: increases Cmax
area under the curve (AUC) [17]: increases area under the curve (AUC)
time to decrease in leukocyte cystine [17]: within an hour
TGase2 protein expression in UUO kidneys [18]: no difference in TGase2 protein expression
lowering of leukocyte cystine levels ([19]; children with cystinosis, enteral administration (Dohil et al.)): prolonged efficacy in the lowering of leukocyte cystine levels
progression to kidney failure/transplantation ([19]; subjects with cystinosis, taken regularly): reduce the rate of progression to kidney failure/transplantation
depletion of intracellular cystine ([19]; taken regularly, measured in circulating white blood cells): up to 90%
